Data: publication PMC12112476, “Mass Spectrometric ITEM-FOUR Analysis Reveals Coding Single-Nucleotide Polymorphisms in Human Cardiac Troponin T That Evade Detection by Sandwich ELISAs Which Use Monoclonal Antibodies M7 and M11.7 from the Elecsys Troponin T® Assay” (International Journal of Molecular Sciences, 2025)

Assays:
Format in all cases: binding
[1] = test system: monoclonal anti-hcTnT antibody M7; test: ITEM-FOUR nano-ESI mass spectrometry: in-solution immune complex formation and gas-phase dissociation of M7 antibody–epitope peptide complexes; settings: for in-solution immune complex formation with M7 (binding in words): nano-ESI-MS, 200 mM ammonium acetate pH 6.7, peptide:antibody 2.1:1 (epitope series) or 13:1 (negative controls)
Procedure: (§1) Immune complex-containing solutions of a wild-type epitope peptide and its corresponding antibody, e.g., P11 and M7, were prepared by mixing the two components in 200 mM ammonium acetate buffer (pH 6.7), ensuring a molar excess of the epitope peptide over the antibody to achieve binding saturation. After an incubation period of one hour, the entire mixture (~3 µL) was loaded into a nano-ESI emitter and electrosprayed. The mass spectrometer was configured to transmit only ion signals with m/z values above 3850, effectively eliminating signals from the unbound peptide (Figure 1A).
(§2) Antibody–peptide mixture solutions were prepared for ITEM FOUR experiments by mixing 5 µL of one antibody working solution with one assigned peptide working solution to generate antibody to peptide molar ratios of 1:2.1 for all solutions that contained the M7 antibody. For mixture solutions containing the M11.7 or the anti-TNFα antibody, 1:13 molar ratios were prepared. Antibodies were incubated together with peptides for at least one hour at room temperature prior to analysis.
(§3) Data acquisition for ITEM-FOUR experiments was performed as described in [18] with the Synapt G2S mass spectrometer (Waters MS-Technologies, Wilmslow, UK) and with the following instrumental settings: source temperature, 40 °C; capillary voltage, 1.0–1.3 kV; sample cone voltage, 130 V; source offset voltage, 130 V; trap gas flow (argon), 8.0 mL/min; helium gas: 20 bar. All mass spectra were acquired in positive-ion mode applying a mass window of m/z 200–8000. The quadrupole analyzer was used to block transmission of lower-molecular-mass ions: M1 = 5000 with dwell time of 25% and ramp time of 25%; M2 = 5000 with dwell time of 25% and ramp time of 25%; M3 = 5000. ΔCV in the TRAP collision cell was increased stepwise as follows: 0, 2, 6, 10, 14, 18, 22, 26, 30, 34, 40, 46, 52 and 58 V. The ion mobility separation mode was not used. All acquired scans during a given collision cell voltage difference setting were integrated to obtain an averaged spectrum from which ion intensities were extracted for ITEM-FOUR calculations. Data were acquired and processed with MassLynx software version 4.1 (Waters MS-Technologies). For exact time stamps of all measurements, refer to Table S2 in the Supplement (see also the deposited raw data supplement in the PRIDE directory). All mass spectra for each ΔCV setting were smoothed using the Savitzky-Golay method. Spectra of antibody solutions and antibody–peptide mixture solutions were smoothed using 30 cycles with a 15-mass unit window at the high mass end and at the low mass end with 3 cycles and a 2-mass unit window. All measurements were recorded in duplicate. The mass spectrometric raw data have been deposited via the ProteomeXchange Consortium in the PRIDE partner repository with the dataset identifier PXD058812 [70].
(§4) The Origin Pro 2023b (64-bit, OriginLab Corporation, Northampton, MA, USA) software package with an automation script for processing multiple datasets was used to graphically plot the extracted intensities of the ion signals of all relevant molecular entities (the immune complex with two bound peptides, the immune complex with one bound peptide, free antibodies, and free peptides) against their corresponding charge state for each collision cell voltage difference (ΔCV). Subsequently, Gaussian curve fittings were performed separately for each molecular entity. […] Iterations were performed for R2 values to be at least 0.91. Apices of Gaussian curves provided the intensities and the average m/z values for each molecular species. Intensity values of individual molecular entities (educts and products) were summed and normalized. Normalized intensities of educts and products from duplicate measurements were averaged.
(§5) The number of atoms from rituximab was used because the amino acid sequences of neither the M7 nor the M11.7 antibody were disclosed. […]

[2] = test system: monoclonal anti-hcTnT antibody M11.7; test: ITEM-FOUR nano-ESI mass spectrometry: in-solution immune complex formation and gas-phase dissociation of M11.7 antibody–epitope peptide complexes; settings: for in-solution immune complex formation with M11.7 (binding in words): nano-ESI-MS, 200 mM ammonium acetate pH 6.7
Procedure: as §1, §2, §3, §4, §5

[3] = test system: anti-TNFα antibody; test: Nano-ESI-MS negative control: epitope peptide mixed with an unrelated antibody; settings: 200 mM ammonium acetate pH 6.7, peptide:antibody 13:1
Procedure: Negative controls were investigated to confirm specificity of in-solution complex formations. […] To further rule out non-specific interactions for epitope peptide P11 or epitope peptide P21, either of them was separately mixed with an unrelated anti-TNFα antibody (Figures S46 and S47).
The anti-TNFα antibody stock solution (2 µg/µL) was prepared from lyophilized antibody powder (article number: MAS: 23720, ThermoFisher Scientific) and 200 mM ammonium acetate (pH 6.7).
as §2
Data acquisition for ITEM-FOUR experiments was performed as described in [18] with the Synapt G2S mass spectrometer (Waters MS-Technologies, Wilmslow, UK) and with the following instrumental settings: source temperature, 40 °C; capillary voltage, 1.0–1.3 kV; sample cone voltage, 130 V; source offset voltage, 130 V; trap gas flow (argon), 8.0 mL/min; helium gas: 20 bar. […] All measurements were recorded in duplicate. […]

[4] = apparent gas-phase dissociation constant, dimensionless number, extrapolated to ambient temperature
[5] = class by difference of normalized product ion intensities over ΔCV
[6] = pseudo thermodynamic value of gas-phase complex dissociation, Ellingham diagram read at Tamb
[7] = pseudo thermodynamic value of gas-phase complex dissociation, extrapolated to Tamb

With LVSLKDRIERRRAER [Peptide P11] the “dx (V)” value ([1]; Boltzmann curve parameter, peptide:antibody 2.1:1, averaged from two acquisitions) was 6.69 V, the “KD m0g# [Ø]” value [1, 4] was 0.59 Ø and the “Binding Type” value [1, 5] was “orthodox (The differences in normalized product ion intensity values were always greater than 15 percentage points)”. For the same sequence, the “ΔCV50 (V)” value ([1]; collision cell voltage difference for 50% dissociation, Boltzmann fit, peptide:antibody 2.1:1, averaged from two acquisitions) was 25.27 V, the “Final (%)” value ([1]; normalized product ion quantity at highest applied ΔCV, peptide:antibody 2.1:1, 200 mM ammonium acetate pH 6.7, averaged from two acquisitions) was 84.36% and the “Initial (%)” value ([1]; normalized product ion quantity at lowest applied ΔCV, peptide:antibody 2.1:1, 200 mM ammonium acetate pH 6.7, at least 1 h RT, nano-ESI, ΔCV 0-58 V, averaged from two acquisitions) was 56.43%. For the same sequence, the “ΔGm0g#” value [1, 6] was 1.28 kJ/mol, the “Tamb ΔSm0g#” value [1, 7] was 38.96 kJ/mol and the “ΔHm0g#” value [1, 7] was 40.25 kJ/mol. The “Slope (%/V)” value ([1]; slope of Boltzmann curve, peptide:antibody 2.1:1, averaged from two acquisitions) was 1.04 %/V, the “in-solution immune complex formation with M11.7 (binding in words)” value ([2]; peptide:antibody 13:1) was “no immune complexes were detected” and the “in-solution immune complex formation with anti-TNFα antibody” value [3] was “No immune complex signals were observed”.
With AEQQRIRNEREKERQ [Peptide P21] the “in-solution immune complex formation with M7 (binding in words)” value [1] was “no immune complexes were detected”, the “dx (V)” value ([2]; Boltzmann curve parameter, peptide:antibody 13:1, averaged from two acquisitions) was 5.77 V and the “KD m0g# [Ø]” value [2, 4] was 0.92 Ø. The “Binding Type” value [2, 5] was “orthodox (The differences in normalized product ion intensity values were always greater than 15 percentage points)”, the “ΔCV50 (V)” value ([2]; collision cell voltage difference for 50% dissociation, Boltzmann fit, peptide:antibody 13:1, averaged from two acquisitions) was 12.77 V and the “Final (%)” value ([2]; normalized product ion quantity at highest applied ΔCV, peptide:antibody 13:1, 200 mM ammonium acetate pH 6.7, averaged from two acquisitions) was 96.29%. The “Initial (%)” value ([2]; normalized product ion quantity at lowest applied ΔCV, peptide:antibody 13:1, 200 mM ammonium acetate pH 6.7, at least 1 h RT, nano-ESI, ΔCV 0-58 V, averaged from two acquisitions) was 56.91%, the “ΔGm0g#” value [2, 6] was 0.21 kJ/mol and the “Tamb ΔSm0g#” value [2, 7] was 72.32 kJ/mol. For the same sequence, the “ΔHm0g#” value [2, 7] was 72.53 kJ/mol, the “Slope (%/V)” value ([2]; slope of Boltzmann curve, peptide:antibody 13:1, averaged from two acquisitions) was 1.71 %/V and the “in-solution immune complex formation with anti-TNFα antibody” value [3] was “No immune complex signals were observed”.
In the case of “GPSIVHRKSFHHHHHH [His-tag peptide, unrelated His-tag peptide used as negative control, reference compound]”, the “in-solution immune complex formation with M7 (binding in words)” value [1] is reported as “did not produce any immune complexes” and the “in-solution immune complex formation with M11.7 (binding in words)” value ([2]; peptide:antibody 13:1) is reported as “did not produce any immune complexes”.
